Assay results reported in patent publication US20250326715A1, “NOVEL MAIN PROTEASE INHIBITORS, AND COMPOSITIONS AND METHODS THEREOF” (University of Massachusetts, priority 2023, published 2025).
Read-outs that look alike come from different tables or passages of the source.

Key:
[1] = target: T1, Cathepsin L (Homo sapiens, UniProt P07711); assay: Cathepsin L inhibition assay kit (Abcam), IC50 and kinact/KI; assay type: biochemical; details: for IC50: 20 min pretreatment; for kinact/KI: read-out: Cathepsin L kinact/KI
T1 construct: purchased Abcam ab197012
Experimental: (§1) Determination of IC50 and kinact/KI values for Cathepsins L and B
IC50 and kinact/KI values of the inhibitors were determined using commercially available inhibition assay kits (Abcam) by following the manufacturer's protocol. […] The observed rates (kobs) were determined by fitting to a single-phase association equation. The resulting kobs values were plotted against the concentrations of inhibitor and the data were fit to equation 2 to derive the kinact/KI values,
using GraphPad Prism, where kinact is the maximal rate of inactivation, KI is the concentration of inhibitor that affords half-maximal inactivation, and [I] is the concentration of inhibitor. When kobs with [I] varied linearly, kinact/KI was determined from the slope of the line. All the experiments were performed in triplicate. […] Crystallization of M^Pro in Complex with Inhibitors

[2] = target: T2, M^Pro (Severe acute respiratory syndrome coronavirus 2, UniProt P0DTD1); assay: Labelling of A549-hACE2 lysate spiked with recombinant M^Pro with SM144, competition by SM141 or SM142; assay type: binding, SARS-CoV-2; details: 250 nM M^Pro spiked, 2.5 μM SM144, 2.5-25 μM competitor
Experimental: A549-hACE2 cells were grown in the DMEM medium (supplemented with 10% heat-inactivated fetal bovine serum, 100 units/mL penicillin and 100 μg/mL streptomycin). Upon reaching ˜90% confluence, cells were collected using a cell scraper, harvested by centrifugation at 3,000 rpm for 5 min and were resuspended in 1×PBS supplemented with 1% NP-40. Then the cells were lysed using a probe sonicator and lysates were cleared by centrifugation at 21000 g for 15 min. Soluble proteins in the lysate were quantified by DC-assay (Bio-Rad).
A549-hACE2 lysate (2 mg/mL, 50 μL total) spiked with or without recombinant M^Pro (250 nM final) was treated with DTT (1 mM final) and various concentrations of SM144 (0-5 μM final). […] All these reactions were incubated at 25° C. for 30 min. Then TAMRA-N3 (100 μM), TCEP (1 mM), TBTA (0.3 mM) and freshly prepared copper (II) sulphate (4 mM) were added sequentially to the reaction mixture. The tubes were then gently tumbled at room temperature for 2 h. The precipitated proteins were collected by centrifugation at 5000 rpm for 6 min. The protein pellets were resuspended in 5×SDS-PAGE loading dye, heated at 95° C. for 10 min and separated by SDS-PAGE. Protein bands were visualized by recording in-gel fluorescence using a typhoon scanner (excitation/emission maxima ˜546/579 nm). All the experiments were performed in duplicate.

[3] = test system: SARS-CoV-2; assay: microbe, parasite or virus in culture; assay type: cell-based; details: for EC90: read-out: EC90, inhibition of SARS-CoV-2 infection; for EC50: read-out: EC50, inhibition of SARS-CoV-2 infection; for IC50: hACE2 expressing A549 cells, read-out: IC50, block of SARS-CoV2 replication
[4] = target: T2, M^Pro; assay type: binding
[5] = test system: SARS-CoV-2; assay: Antiviral activity in SARS-CoV-2-infected K18-hACE2 transgenic mice; assay type: in vivo; details: K18-ACE2 mice; for viral RNA loads and titers in lung tissue vs vehicle control: 72 h treatment; for inflammatory cytokines and chemokines (IFN-β, TNF-α, IL-1β, IL-6) in lung tissue: infected for 72 hours; for protection from SARS-CoV2-induced weight loss and lethality: intranasal 10 mg/kg once daily for 3 days starting 2 h prior to infection; for protection from SARS-CoV-2-induced weight loss and lethality: intraperitoneal 25 mg/kg twice daily for 5 days, post-infection; for histopathological analysis of lung tissue: treatment for 5 days
From the text: For these studies, K18-hACE2 transgenic mice (K18-ACE2) were used that express human ACE2 under the control of the epithelial cell cytokeratin-18 (K18) promoter as this model provides robust SARS-CoV-2 infection.
All animal experiments were approved by the Institutional Animal Care Use Committees at the University of Massachusetts Chan Medical School. Animal were kept in a specific pathogen free (SPF) environment. Hemizygous K18-hACE2 C57BL/6J mice (strain: […] (K18-ACE2)2Prlmn/J) were obtained from The Jackson Laboratory. 8-12-week-old male and female mice were anesthetized with isoflurane and infected intranasally with 3×10^4 PFU of SARS-CoV-2. […] Mice were monitored daily for weight loss and survival. Lung samples were collected at indicated time points and placed in a bead homogenizer tube with 1 ml of DMEM+2% FBS for homogenization, then 100 μl of this mixture was placed in PBS for tittering or in 300 μl Trizol LS (Invitrogen) for RNA extraction. For histology, lungs were perfused with 10 U/mL Heparin, intratracheally inflated with 10% buffered-formalin and dissected from mice. Tissues were fixed in 4% paraformaldehyde overnight and embedded in 10% paraffin. Five micrometer thin sections were stained by H&E. Histomorphology, grading of histology scores and evaluation of inflammation of each H&E slide was evaluated by Applied Pathology Systems.

[6] = test system: OC-43; assay type: cell-based; details: A549-hACE2 cells
[7] = target: SARS-CoV-2 PL^Pro (Severe acute respiratory syndrome coronavirus 2, UniProt P0DTD1); assay: Determination of IC50 values for SARS-CoV-2 PL^Pro (Z-RLRGG-AMC substrate); assay type: biochemical
[8] = target: T3, Cathepsin B (Homo sapiens, UniProt P07858); assay: Cathepsin B inhibition assay kit (Abcam), IC50; assay type: biochemical; details: 20 min pretreatment
T3 construct: purchased Abcam ab185438
Experimental: as §1
IC50 and kinact/KI values of the inhibitors were determined using commercially available inhibition assay kits (Abcam) by following the manufacturer's protocol. For IC50 values, enzymes were pretreated with test inhibitor (0-50 μM) for 20 min prior to adding the fluorogenic substrate, and end-point fluorescence was recorded after 30 min. For the kinact/KI values, enzymes were treated with inhibitor and substrate simultaneously and increase in fluorescence was monitored over 60 min. The observed rates (kobs) were determined by fitting to a single-phase association equation. The resulting kobs values were plotted against the concentrations of inhibitor and the data were fit to equation 2 to derive the kinact/KI values,
using GraphPad Prism, where kinact is the maximal rate of inactivation, KI is the concentration of inhibitor that affords half-maximal inactivation, and [I] is the concentration of inhibitor. When kobs with [I] varied linearly, kinact/KI was determined from the slope of the line. All the experiments were performed in triplicate. All fluorescence measurements were taken at absorption/emission wavelength of 400/505 nm using an EnVision 2105 plate reader. Crystallization of M^Pro in Complex with Inhibitors

[9] = Pharmacokinetic parameters in mice (plasma, LC-MS/MS); details: for CI_Obs: IV
Experimental: Pharmacokinetics were evaluated in male C57Bl/6 mice, approximately 25 g. Test compounds were formulated at 0.3 mg/mL for intravenous dosing and 1 mg/mL for oral gavage. Formulation concentrations reflect free-base concentrations. Formulations were prepared by dissolving in DMSO (20× stock) and mixing 1:1 with tween-80. Prior to dosing, the formulation was diluted with sterile saline. The final formulation was 5% DMSO, 5% tween-80, 90% saline (v:v:v). Mice (n=3) were dosed at 10 μL per gram body weight. […] A total of 25 μL blood was collected at each time point. The hematocrit tubes were sealed with a wax plug and held on ice until plasma could be isolated via centrifugation in a microcentrifuge fit with a hematocrit rotor.
Drug levels were determined from 5 μL plasma. Plasma was treated with 75 μL 90/10 acetonitrile/water containing Carbamazepine as an internal standard (IS). Samples were loaded to a 96-well Millipore Multiscreen Solvinter 0.45 micron low binding PTFE hydrophilic filter plate and the filtrate was directly analyzed. All plasma samples were treated with 75 μL 90/10 acetonitrile/water with Carbamazepine as internal standard (IS) to extract the analyte and precipitate protein. The plates were agitated on ice for approximately five minutes prior to centrifugation into a collection plate. Separate standard curves were prepared in blank mouse plasma and brain homogenate and processed in parallel with the samples. The filtrate was directly analyzed by LC-MS/MS.

[10] = target: T4, SARS-CoV-2 M^Pro (Severe acute respiratory syndrome coronavirus 2, UniProt P0DTD1); assay: Determination of IC50 values for SARS-CoV-2 M^Pro (fluorogenic peptide substrate, end-point); assay type: biochemical
[11] = target: T4, SARS-CoV-2 M^Pro; assay: Determination of KI values for SARS-CoV-2 M^Pro (initial velocity, competitive inhibition); assay type: biochemical
[12] = Severe acute respiratory syndrome coronavirus 2, A549-hACE2 cells
[13] = Severe acute respiratory syndrome coronavirus 2
[14] = 30 nM PL^Pro, 20 min preincubation, read-out: PL^Pro IC50
[15] = male, C57Bl/6, mouse, plasma, iv, 3 mg/kg
[16] = male, C57Bl/6, mouse, plasma, po, 10 mg/kg
[17] = 12.5 nM M^Pro, 20 min preincubation, 30 μM substrate, read-out: M^Pro IC50
[18] = competitive inhibition, initial velocity, read-out: M^Pro Ki

T1 sequence (P07711 114-333): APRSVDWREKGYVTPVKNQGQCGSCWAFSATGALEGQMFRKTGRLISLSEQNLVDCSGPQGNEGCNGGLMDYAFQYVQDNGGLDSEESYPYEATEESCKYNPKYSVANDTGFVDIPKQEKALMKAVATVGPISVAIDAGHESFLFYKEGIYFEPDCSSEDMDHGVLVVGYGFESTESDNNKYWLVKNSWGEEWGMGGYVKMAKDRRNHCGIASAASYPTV

SMILES	IC50 [1] [µM]	labeling of M^Pro in spiked A549-hACE2 lysate / its inhibition [2]	EC50 [3, 12] [µM]	IC50 [3, 13] [µM]	viral RNA loads and titers in lung tissue vs vehicle control [5]	inflammatory cytokines and chemokines (IFN-β, TNF-α, IL-1β, IL-6) in lung tissue [5]	protection from SARS-CoV2-induced weight loss and lethality [5]	protection from SARS-CoV-2-induced weight loss and lethality [5]	histopathological analysis of lung tissue [5]	inhibition of OC-43, in words [6]	inhibition of papain-like protease (PL^Pro), in words [7]	IC50 [8] [µM]	oral bioavailability / oral absorption, in words ([9]; mice)	tissue distribution, in words ([9]; mice)	CI_Obs ([9]; mice) [mL/min/kg]	kinact/KI [1] [M⁻¹ s⁻¹]	IC50 [7, 14] [µM]	IC50 [10, 17] [µM]	Ki [11, 18] [µM]	other results
CCOC(=O)C=CC(CC1CCNC1=O)NC(=O)C(Cc1ccccc1)NC(=O)C(N)Cc1ccccc1 (centres unmarked) [SM141]	0.06	dose dependently inhibited	0.0082	0.0082	remarkably lower	Reduced inflammatory cytokines and chemokines were detected	protects mice from SARS-CoV2-induced weight loss and lethality	protects K18-ACE2 mice from SARS-CoV-2-induced weight loss and lethality	significant reduction in lung inflammation and improved overall lung pathology	inhibit OC-43	completely inactive	> 50	minimal oral bioavailability	lower tissue distribution	71.5					antiviral activity, in words ([3]; A549-hACE2 cells, 2 μM, 24 h): almost completely blocks viral infection; EC90 ([3]; A549-hACE2 cells): 0.022 µM; EC90 [3, 12]: 0.0221 µM; inhibition of SM144 labeling of recombinant M^Pro ([4]; 0-50 μM competitor, 5 μM SM144): competitively inhibited; in vivo antiviral efficacy, SM141 compared with SM142 ([5]; survival): better antiviral efficacy; IC50 [7]: > 50 µM; plasma half-life (T1/2), in words ([9]; mice): about an hour; IC50 [10]: 0.9 µM; Ki [11]: 9 µM
CCOC(=O)C=CC(CC1CCNC1=O)NC(=O)C(Cc1ccccc1)NC(=O)C(Cc1ccc(F)cc1)NC(=O)OC(C)(C)C (centres unmarked) [SM142]	0.145	dose dependently inhibited	0.0147	0.0147	remarkably lower	Reduced inflammatory cytokines and chemokines were detected	protects mice from SARS-CoV2-induced weight loss and lethality	protects K18-ACE2 mice from SARS-CoV-2-induced weight loss and lethality	significant reduction in lung inflammation and improved overall lung pathology	inhibit OC-43	completely inactive	40 ± 9	significant oral absorption	much higher tissue distribution than SM141	169	1830	> 50	1.8	10	half-life ([9]; male, C57Bl/6, mouse, in vivo, po, 10 mg/kg): 2.1 h; AUC(0-inf) [9, 15]: 308 ng·h/mL; AUC(0-t) [9, 15]: 0.4 µM·h; Cmax [9, 15]: 400 nM; MRT inf [9, 15]: 1.9 h; Tmax [9, 15]: 4.8 min; Vd [9, 15]: 13.2 L/kg; half-life [9, 15]: 2.1 h; AUC(0-inf) [9, 16]: 347 ng·h/mL; AUC(0-t) [9, 16]: 0.5 µM·h; Cmax [9, 16]: 600 nM; Tmax [9, 16]: 4.8 min; bioavailability [9, 16]: 37.5%
C#CCOCCC(=O)NC(Cc1ccc(F)cc1)C(=O)NC(Cc1ccccc1)C(=O)NC(C=CC(=O)OCC)CC1CCNC1=O (centres unmarked) [SM144]	0.22	selectively labels M^Pro in a dose-dependent manner										> 50				1000	> 50	0.7	4.5	antiviral activity compared with SM141 and SM142 ([3]; A549-hACE2 cells): significantly lower antiviral activity than SM141 and SM142; limit of detection of M^Pro by the probe ([4]; 5 μM SM144, TAMRA-azide, in-gel fluorescence): 5 pmol
